Entries after “also recorded” stand apart in the source; their conditions may differ. Read-outs that look alike come from different tables or passages of the source.
Columns and labels:
[1] = tested on: ACS1028-ECs; experiment: Cell survival of purified iPSC-ECs by light microscopy cell counting / Trypan blue; format: cell-based; conditions: for cell survival: serial passaging
Procedure: There were three biological replicates for each group in each experiment, unless otherwise specified. For MitoTracker quantification, total fluorescence signal for the area was measured in Fiji and divided by the number of nuclei present. This was done for 5 fields of view (technical replicates) and averaged to generate a data point for a given biological replicate. For the DAF-FM reduction measurements for NO production, a given experimental condition was plated into 3 wells of a 96 well plate. For TEM analysis, each biological sample was imaged in a minimum of 5 locations. Three representative images from each condition were utilized for quantifying autolysosomes per high power field (HPF) in each of two separate experiments. For light microscopy images, cells were manually counted from three distinct areas of a given experimental condition on two separate occasions. All data wereanalyzed with one-way ANOVA with a post-hoc Tukey test in IBM SPSS Statistics for Macintosh, version 27 (IBM Corp., Armonk, N.Y., USA). A p value of <0.05 was considered significant, where * represent comparisons between the specified groups.
(§1) Experiments were conducted to determine whether inducing autophagy in iPSC-ECs overcomes the premature senescence phenomenon. […] Due to the loss of proliferating cells in the control culture, the experiment was terminated at passage 3.
(§2) To assess whether the effect of Rg2 on proliferation is mediated through autophagy, ACS1028-ECs was administered with 200 μM Rg2 and SBI-0206965 to block ULK1 kinase at varying concentrations. Cell survival was assessed by counting the number of cells per high power field by light microscopy, which diminished over serial passages in the DMSO-treated vehicle-control condition.

[2] = tested on: CD144 and CD31; experiment: Immunostaining for CD144 and CD31 and morphology of iPSC-ECs; format: cell-based, human; conditions: ACS1028 and Y6 iPSC-ECs
Procedure: Immunostaining was performed by fixing cells in 4% paraformaldehyde for 15 minutes at room temperature and then washing with PBS. Cells were then permeabilized with 70% ice cold ethanol on ice and blocked with 0.5% BSA in PBS for 15 minutes at room temperature. Cells were then incubated overnight at 4° C. with the primary antibody in antibody dilution buffer (0.05% BSA in PBS) at the following concentrations: Nanog (Life Technologies PA1-097, 1:100), SSEA4 (Life Technologies 414000, 1:400), Sox2 (Life Technologies PA1-16968, 1:100), VE-cadherin/CD144 (Sigma V1514, 1:200), PECAM1/CD31 (Abcam ab187377, 1:100). The isotype control antibodies used in this study were mouse IgG1 (Abcam ab172730) and rabbit serum. Cells were washed with PBS and incubated with conjugated secondary antibodies at room temperature in the dark (Life Technologies, 1:300).

[3] = tested on: ACS1028-derived ECs; experiment: Mitophagy inducing drug experiment, cell number by total Hoechst signal; conditions: all concentrations, by passage 1
Procedure: (§4) The effect of increasing mitophagy in iPSC-ECs was evaluated.

[4] = tested on: LC3-II; experiment: Western blotting of LC3-II (normalized to GAPDH) in ACS1028-EC lysate; format: cell-based, human; conditions: ACS1028-ECs
Procedure: Western blotting was performed using a modified Novus Biological protocol (NB100-2220) with 10%, 12%, 14% or 4-20% gradient SDS-PAGE gels. Cells were collected and lysed with RIPA buffer plus PMSF protease inhibitor. Cell lysate was centrifuged at high speed for 10 minutes at 4° C., and the supernatant was transferred to a fresh tube. The total protein content was quantified with a Bradford assay, and a total of 20 ug of protein was mixed with Laemmli buffer (4% SDS, 5% 2-mercaptoethanol (BME), 20% glycerol, 0.004% bromophenol blue, 0.125 M Tris HCl, pH 6.8) and denatured for 10 minutes at 95° C. This was followed by wet transfer to PVDF immobilon membrane (Millipore IPFL00010) and blocked with Odyssey TBS blocking buffer (LiCor 927-50000). […] Bands were quantified and normalized by a ratio of LC3-II:GAPDH, rather than LC3-II:LC3-I as LC3-II is more sensitive in blotting and accurate observed alone.
as §2

[5] = tested on: Y6-derived ECs; experiment: Mitophagy inducing drug experiment, cell number by total Hoechst signal; conditions: all concentrations, by passage 1
Procedure: as §4

[6] = tested on: SIRT1; experiment: Western blotting, SIRT1 expression in iPSC-ECs; format: cell-based; conditions: human iPSC-derived endothelial cells
Source text: (§3) Milk solution was removed, and membranes rinsed in TBST. […] ECL was applied for chemiluminescence. Imaging was done using Bio-Rad imager.

[7] = tested on: endothelial nitric oxide synthase; experiment: Western blotting, phosphorylation of endothelial nitric oxide synthase in iPSC-ECs; format: cell-based; conditions: human iPSC-derived endothelial cells
Source text: as §3

[8] = tested on: Drp1; experiment: Western blotting, phosphorylation of Drp1 in iPSC-ECs; format: cell-based; conditions: human iPSC-derived endothelial cells
Source text: as §3

[9] = tested on: PDH; experiment: Western blotting, PDH expression in iPSC-ECs; format: cell-based, human; conditions: particularly under bafilomycin treated conditions
Source text: as §3

[10] = tested on: Opal; experiment: Western blotting, Opal expression in iPSC-ECs; format: cell-based; conditions: human iPSC-derived endothelial cells
Source text: as §3

[11] = tested on: cleaved caspase 3
Procedure: Utilizing 8%, 10%, and 14% polyacrylamide gels, samples were run at 150V for 1 to 2 hours in SDS-Tris-Glycine buffer. Gels were then transferred to nitrocellulose membrane for two and half hours at 0.35 Amps in Tris-Glycine transfer buffer. After transfer nitrocellulose membranes were blocked in 10% milk/TBST solution for 1 hr. Milk solution was removed, and membranes rinsed in TBST. Blocked membranes were cut and placed in primary antibody solution (5% BSA/TBST) overnight. After incubation with primary antibody incubation membranes were washed with TBST for 5 mins 3X. Secondary antibody incubation (Rabbit 1:1000) in 5% BSA solution was applied for 2 hrs. After secondary antibody incubation membranes were washed with TBST for 15 mins 3X. ECL was applied for chemiluminescence. Imaging was done using Bio-Rad imager.

[12] = tested on: PKM2; experiment: Western blotting, phosphorylation of PKM2 in iPSC-ECs; format: cell-based, human; conditions: particularly under bafilomycin treated conditions
Source text: as §3

[13] = tested on: ACS1028-ECs; experiment: Cell proliferation assay (EdU labeling) of iPSC-ECs over serial passages; format: cell-based, human
Procedure: Proliferating cells were labeled with EdU using the Invitrogen Click-iT microplate assay kit (Invitrogen C10214), without the use of the Amplex Ultra red step. Cells were labeled for 24 hours with 10 μM EdU or DMSO as a vehicle control. Cells were fixed and prepared according to the manufacturer's instructions, minus the Amplex Ultra red labeling. Hoechst 33342 was added at 5 μg/mL (Invitrogen H1399), and labeled cells were imaged on a Zeiss inverted fluorescence microscope. Four tiled images at 10× magnification were collected per each well of 3 biological replicates per condition and stitched together as a single image per well for analysis. EdU-labeled and total nuclei were counted in Fiji.
as §1

[14] = tested on: Parkin; experiment: Western blotting, Parkin expression in iPSC-ECs; format: cell-based, human; conditions: particularly under bafilomycin treated conditions
Source text: as §3

N=c1c2c(-c3ccccc3)c(-c3ccccc3)n(Cc3ccccc3)c2ncn1[C@H]1CC[C@H](O)CC1 [ML246]
presence of cells by light microscopy [1]: no cells visible
residual cells, Trypan blue [1]: no residual cells

NCCCCNCCCN [spermidine]
residual cells, Trypan blue ([1]; purified ACS1028-ECs incubated overnight with Trypan blue): no residual cells
presence of cells by light microscopy ([1]; purified ACS1028-ECs, versus control and DMSO-vehicle control): no cells visible

N#CC(C#N)=NNc1ccc(OC(F)(F)F)cc1 [FCCP]
CD144 and CD31 expression and typical morphology (mature endothelial cell phenotype) [2]: accelerated loss of mature endothelial cell phenotype
cell loss / cell survival (total Hoechst signal) [3]: high levels of cell loss

CNC(=O)c1ccccc1Oc1nc(Nc2cc(OC)c(OC)c(OC)c2)ncc1Br [SBI-0206965]
presence of cells by light microscopy [1]: no cells visible
residual cells, Trypan blue [1]: no residual cells
cell survival (cells per high power field), co-treatment with Rg2 ([1]; 10 μM (highest concentration) in the presence of 200 μM Rg2, passages 2 and 3): almost no surviving cells
cell survival ([1]; purified ACS1028-ECs): no cells surviving to passage 1
cell survival (cells per high power field), co-treatment with Rg2 ([1]; varying concentrations of SBI-0206965 in the presence of 200 μM Rg2, survival to passage 3): fewer cells surviving when treated with higher concentrations; also recorded: statistically significant reduction in cell survival in a dose-dependent manner
LC3-II level by Western blotting, co-treatment with Rg2 ([4]; passage 3, SBI-0206965 at any concentration added to Rg2): reduced

Antimycin A
CD144 and CD31 expression and typical morphology (mature endothelial cell phenotype) [2]: accelerated the loss of CD144 and CD31 as well as typical morphology
cell survival (total Hoechst signal) [5]: decreased cell survival
cell loss / cell survival (total Hoechst signal) [3]: high levels of cell loss; also recorded: decreased cell survival

CC[C@H]1/C=C/C=C/C[C@@H](C)[C@H](O)[C@@](C)(O)C(=O)[C@@H](C)[C@H](O)[C@@H](C)C(=O)[C@@H](C)[C@H](O)[C@@H](C)/C=C/C(=O)O[C@@H]2[C@H](C)[C@H](CC1)O[C@]1(CC[C@H](C)[C@H](C[C@@H](C)O)O1)[C@H]2C [oligomycin]
CD144 and CD31 expression and typical morphology (mature endothelial cell phenotype) [2]: accelerated the loss of CD144 and CD31 as well as typical morphology
cell survival (total Hoechst signal) [5]: decreased cell survival
cell loss / cell survival (total Hoechst signal) [3]: high levels of cell loss; also recorded: decreased cell survival

Oc1ccc(C=Cc2cc(O)cc(O)c2)cc1 [resveratrol]
presence of cells by light microscopy [1]: no cells visible
residual cells, Trypan blue [1]: no residual cells
cell survival ([1]; purified ACS1028-ECs): no cells surviving to passage 1

CC(C)=CCC[C@](C)(O)[C@H]1CC[C@]2(C)[C@@H]1[C@H](O)C[C@@H]1[C@@]3(C)CC[C@H](O)C(C)(C)[C@@H]3[C@@H](O[C@@H]3O[C@H](CO)[C@@H](O)[C@H](O)[C@H]3O[C@@H]3O[C@@H](C)[C@H](O)[C@@H](O)[C@H]3O)C[C@]12C [Rg2]
cell survival ([1]; purified ACS1028-ECs): improved cell survival
LC3-II level by Western blotting ([4]; passage 3, Rg2 treated vs DMSO): increase in LC3-II level
SIRT1 expression [6]: increased expression of longevity protein SIRT1 in a dose-dependent manner
phosphorylation (activity) of endothelial nitric oxide synthase [7]: increased phosphorylation
phosphorylation of Drp1 (mitochondrial fission) [8]: increased phosphorylation of Drp1
expression of PDH [9]: increased
expression of Opal (mitochondrial fusion) [10]: increased
apoptosis (cleaved caspase 3) [11]: no increase in cleaved caspase 3
phosphorylation of PKM2 [12]: increased phosphorylation of PKM2
persistence of the proliferation benefit over serial passages ([13]; serial passages, experiment terminated at passage 3): persisted through passage 3; also recorded: sustained through passage 3
proliferation (EdU labeled cells) ([13]; versus DMSO vehicle control and rapamycin, ML246, Antimycin A or oligomycin): increased rate of proliferation; also recorded: statistically significant improvement in proliferation
Parkin (mitophagy marker) expression [14]: increased Parkin expression; also recorded: slightly increases

Source: US20240010992A1, “COMPOSITIONS AND METHODS TO IMPROVE IPSC-EC FUNCTION” (Northwestem University, priority 2022, published 2024)
